Data on nine molecules can be found in patent US9085578B2, “Heterocyclic compound” (Takeda Pharmaceutical Company Limited, priority 2012, dated 2015).

The test deals with T1, Tyk2 (Homo sapiens, UniProt P29597).
T1 construct: purchased Invitrogen
Nature of the test: Tyk2 enzyme inhibition test (LANCE method). The test is classed as biochemical. The settings on record: 1 uM test compound, ULight-JAK1 peptide substrate, well without enzyme = 100% inhibition, read-out: Tyk2 enzyme inhibitory activity (%, 1 uM). The protocol:
Tyk2 enzyme inhibitory activity of test compounds was measured by LANCE method (PerkinElmer). First, a test compound diluted with assay buffer (50 mM HEPES (pH=7.5), 10 mM MgCl2, 1 mM EGTA, 2 mM DTT, 0.01% Tween20, 0.01% BSA) was added to 384-well plate at 2 μL each. Then, a Tyk2 (Invitrogen) solution and a fluorescence-labeled peptide substrate (ULight-JAK1, PerkinElmer) solution diluted with assay buffer at 375 ng/mL and 300 nM, respectively were added at 2 μL each. Then, enzyme reaction was started by adding 2 μL each of ATP solution prepared with assay buffer at 30 μM. After the reaction at room temperature for 1 hr, Detection Buffer (PerkinElmer) prepared to be 20 mM EDTA, 4 nM europium-labeled anti-phosphotyrosine antibody (PerkinElmer) was added at 6 μL each. After standing at room temperature for 1 hr, fluorescence intensity (excitation wavelength 340 nm, fluorescence wavelength 665 nm, delay time 100 microsecond) was measured by a plate reader, Envision (PerkinElmer). The inhibitory activity of each compound was calculated as relative value where fluorescence intensity of a well without enzyme is considered as 100% inhibition.
(TR-FRET usually uses a lanthanide donor and a delayed reading to cut background.)

T1 sequence (P29597 whole entry): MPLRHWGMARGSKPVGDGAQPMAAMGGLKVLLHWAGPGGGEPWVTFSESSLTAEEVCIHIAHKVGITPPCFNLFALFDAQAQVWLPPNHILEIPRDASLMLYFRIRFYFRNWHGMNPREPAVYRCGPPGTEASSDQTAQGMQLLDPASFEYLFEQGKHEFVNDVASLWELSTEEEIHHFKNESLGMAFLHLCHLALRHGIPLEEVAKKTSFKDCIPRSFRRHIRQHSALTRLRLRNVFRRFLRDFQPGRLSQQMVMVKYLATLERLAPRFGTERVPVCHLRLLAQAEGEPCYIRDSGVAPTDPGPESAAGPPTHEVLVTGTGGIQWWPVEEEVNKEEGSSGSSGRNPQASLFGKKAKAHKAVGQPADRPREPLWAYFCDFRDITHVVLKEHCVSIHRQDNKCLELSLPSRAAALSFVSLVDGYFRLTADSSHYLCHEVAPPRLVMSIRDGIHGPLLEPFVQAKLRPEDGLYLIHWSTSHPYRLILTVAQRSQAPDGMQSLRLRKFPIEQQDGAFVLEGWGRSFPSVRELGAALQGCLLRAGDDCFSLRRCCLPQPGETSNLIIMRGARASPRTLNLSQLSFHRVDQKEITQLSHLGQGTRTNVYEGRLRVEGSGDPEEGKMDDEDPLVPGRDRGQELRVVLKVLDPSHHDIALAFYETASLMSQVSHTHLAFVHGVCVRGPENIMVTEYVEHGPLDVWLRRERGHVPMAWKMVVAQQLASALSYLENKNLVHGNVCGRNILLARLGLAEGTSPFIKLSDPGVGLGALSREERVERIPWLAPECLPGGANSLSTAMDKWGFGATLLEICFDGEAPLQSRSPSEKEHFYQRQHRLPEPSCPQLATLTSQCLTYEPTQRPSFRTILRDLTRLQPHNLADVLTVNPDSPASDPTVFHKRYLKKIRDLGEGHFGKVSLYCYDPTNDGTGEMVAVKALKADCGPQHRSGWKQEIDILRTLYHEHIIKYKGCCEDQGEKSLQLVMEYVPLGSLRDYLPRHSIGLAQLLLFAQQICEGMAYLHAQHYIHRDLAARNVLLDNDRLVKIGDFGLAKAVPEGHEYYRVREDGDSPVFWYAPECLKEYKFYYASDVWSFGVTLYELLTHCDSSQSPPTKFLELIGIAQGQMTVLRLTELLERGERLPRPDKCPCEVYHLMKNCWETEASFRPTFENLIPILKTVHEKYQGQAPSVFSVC

Turning to `Cc1ccccc1-n1cc(Br)c2[nH]nc(N)c2c1=O` [Example 1, 3-amino-7-bromo-5-(2-methylphenyl)-1,5-dihydro-4H-pyrazolo[4,3-c]pyridin-4-one], the inhibition at 1 µM stood at 40%.
Then `CC(C)C(C)n1cc(-c2ccn(C)n2)c2[nH]nc(N)c2c1=O` (stereo not drawn) [Example 13, 3-amino-5-(3-methylbutan-2-yl)-7-(1-methyl-1H-pyrazol-3-yl)-1,5-dihydro-4H-pyrazolo[4,3-c]pyridin-4-one], with 98%.
In the case of `CC1CCCCC1n1cc(-c2ccn(C)n2)c2[nH]nc(N)c2c1=O` (stereo not drawn) [Example 14, 3-amino-5-(2-methylcyclohexyl)-7-(1-methyl-1H-pyrazol-3-yl)-1,5-dihydro-4H-pyrazolo[4,3-c]pyridin-4-one], the inhibition at 1 µM amounted to 98%.
The result for `Cn1ccc(-c2cn(-c3c(F)cccc3F)c(=O)c3c(N)n[nH]c23)n1` [Example 15, 3-amino-5-(2,6-difluorophenyl)-7-(1-methyl-1H-pyrazol-3-yl)-1,5-dihydro-4H-pyrazolo[4,3-c]pyridin-4-one] reads 100%; that for `N#Cc1cc2[nH]nc(N)c2c(=O)n1-c1ccccc1Cl` [Example 16, 3-amino-5-(2-chlorophenyl)-4-oxo-4,5-dihydro-1H-pyrazolo[4,3-c]pyridine-6-carbonitrile], 82%.
For the molecule `Nc1n[nH]c2c(-c3ccccn3)cn(-c3ccccc3Cl)c(=O)c12` [Example 24, 3-amino-5-(2-chlorophenyl)-7-(pyridin-2-yl)-1,5-dihydro-4H-pyrazolo[4,3-c]pyridin-4-one], the inhibition at 1 µM came out at 98%.
Regarding `N#Cc1ccnc(-c2cn(-c3ccccc3Cl)c(=O)c3c(N)n[nH]c23)c1` [Example 28, 2-(3-amino-5-(2-chlorophenyl)-4-oxo-4,5-dihydro-1H-pyrazolo[4,3-c]pyridin-7-yl)isonicotinonitrile], the inhibition at 1 µM was 100%.
On to `Nc1n[nH]c2c(-c3csc(CN4CCCC4)c3)cn(-c3ccccc3Cl)c(=O)c12` [Example 38, 3-amino-5-(2-chlorophenyl)-7-(5-(pyrrolidin-1-ylmethyl)-3-thienyl)-1,5-dihydro-4H-pyrazolo[4,3-c]pyridin-4-one], for which the inhibition at 1 µM is 95%.
Consider `Cn1ccc(-c2cn(-c3ccccc3C(F)(F)F)c(=O)c3c(N)n[nH]c23)n1` [Example 43, 3-amino-7-(1-methyl-1H-pyrazol-3-yl)-5-(2-(trifluoromethyl)phenyl)-1,5-dihydro-4H-pyrazolo[4,3-c] pyridin-4-one], for which the inhibition at 1 µM amounted to 92%.
